In patent US11767322B2 (BRISTOL-MYERS SQUIBB COMPANY, priority 2020, dated 2023) one finds IC50 data, which are given here for 18 compounds.

Where two headings read alike, the source gives them in different places.

In assay [1] the test system is MLKL phosphorylation in HT29-L23 human colorectal adenocarcinoma cells. Put plainly: MLKL phosphorylation high-content assay. It counts as cell-based.
Assay [2] deals with T1, His-GST-TVMV-hRIPK1(1-324) (Homo sapiens, UniProt Q13546).
T1 construct: The coding region of human RIPK1(1-324) flanked by NdeI site at 5′ end; made in house; host or cells: Spodoptera frugiperda Sf9 insect cells (baculovirus, Bac-to-Bac)
T1 sequence (Q13546 1-324): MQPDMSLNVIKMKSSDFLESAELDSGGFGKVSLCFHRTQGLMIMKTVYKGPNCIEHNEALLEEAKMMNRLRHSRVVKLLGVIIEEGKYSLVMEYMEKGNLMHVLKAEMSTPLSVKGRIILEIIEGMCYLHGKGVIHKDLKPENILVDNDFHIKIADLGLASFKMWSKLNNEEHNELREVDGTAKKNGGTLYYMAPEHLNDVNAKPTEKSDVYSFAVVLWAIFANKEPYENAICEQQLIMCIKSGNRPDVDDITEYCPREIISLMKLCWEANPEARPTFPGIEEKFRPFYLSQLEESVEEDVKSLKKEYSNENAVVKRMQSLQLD
Put plainly: biochemical. Format: binding.

Where [3] appears, read: read-out: pMLKL IC50, HT29-L23 cells, necroptosis induced with TNFα, SMAC mimetic and Z-VAD, 6 h, maximal inhibition defined by Nec1s.
Setting [4] is: HTRF probe displacement, 1 h at rt, read-out: RIPK1 IC50.
Setting [5] is: Homo sapiens, 6 h, read-out: pMLKL IC50, HT29-L23 cells, necroptosis induced with TNFα, SMAC mimetic and Z-VAD, 6 h, maximal inhibition defined by Nec1s.

By IC50 is commonly meant the concentration that inhibits the measured activity by half. `Cc1ccc(-c2ccn3nc(N)nc3c2)c(F)c1C(=O)NCCC(O)c1cccc(Cl)c1` (single isomer, unassigned) [Example 45, 3-(2-amino-[1,2,4]triazolo[1,5-a]pyridin-7-yl)-N-(3-(3-chlorophenyl)-3-hydroxypropyl)-2-fluoro-6-methylbenzamide]: the concentration for half-maximal inhibition (IC50) was 7.4 nM in assay [1] (setting [3]) and 3 nM in assay [2] (setting [4]).

Regarding `Nc1nc2cc(-c3ccc(Cl)c(C(=O)NCC(F)(F)Cc4ccc(F)cc4)c3F)ccn2n1` [Example 207, 3-(2-amino-[1,2,4]triazolo[1,5-a]pyridin-7-yl)-6-chloro-N-(2,2-difluoro-3-(4-fluorophenyl)propyl)-2-fluorobenzamide], the IC50 in assay [1] (setting [5]) was 0.6 nM; in assay [2] (setting [4]), 1.8 nM.

As to `Cc1ccc(-c2ccn3nc(N)nc3c2)c(F)c1C(=O)NCCC(O)c1cccc(Cl)c1` (single isomer, unassigned) [Example 44, 3-(2-amino-[1,2,4]triazolo[1,5-a]pyridin-7-yl)-N-(3-(3-chlorophenyl)-3-hydroxypropyl)-2-fluoro-6-methylbenzamide], the half-maximal inhibitory concentration (IC50) in assay [1] (setting [3]) is 2.5 nM; in assay [2] (setting [4]), 1.3 nM.

As to `Cc1ccc(-c2ccn3nc(N)nc3c2)c(F)c1C(=O)NCC(F)(F)C(O)c1ccnc(C(F)(F)F)c1` (single isomer, unassigned) [Example 260, 3-(2-amino-[1,2,4]triazolo[1,5-a]pyridin-7-yl)-N-(2,2-difluoro-3-hydroxy-3-(2-(trifluoromethyl)pyridin-4-yl)propyl)-2-fluoro-6-methylbenzamide], the IC50 in assay [1] (setting [3]) was 3.2 nM; in assay [2] (setting [4]), 8.4 nM.

As for `Nc1nc2cc(-c3ccc(Cl)c(C(=O)NCC(F)(F)C(O)C4CCC(F)(F)CC4)c3F)ccn2n1` (centres unmarked) [Example 257, 3-(2-amino-[1,2,4]triazolo[1,5-a]pyridin-7-yl)-6-chloro-N-(3-(4,4-difluorocyclohexyl)-2,2-difluoro-3-hydroxypropyl)-2-fluorobenzamide], the values for the IC50 in assay [1] (setting [5]) and in assay [2] (setting [4]) were 5.9 nM and 8.9 nM, respectively.

Consider `Nc1nc2cc(-c3ccc(Cl)c(C(=O)NCC(F)(F)C(O)c4cccc(Cl)c4F)c3F)ccn2n1` (single isomer, unassigned) [Example 170, 3-(2-amino-[1,2,4]triazolo[1,5-a]pyridin-7-yl)-6-chloro-N-(3-(3-chloro-2-fluorophenyl)-2,2-difluoro-3-hydroxypropyl)-2-fluorobenzamide], for which the figures for the IC50 in assay [1] (setting [3]) and in assay [2] (setting [4]) were 1.4 nM and 0.1 nM, respectively.

Consider `Cc1ccc(-c2ccn3nc(N)nc3c2)c(F)c1C(=O)NCC[C@H](O)c1ccc(Cl)cc1` [Example 151, (S)-3-(2-amino-[1,2,4]triazolo[1,5-a]pyridin-7-yl)-N-(3-(4-chlorophenyl)-3-hydroxypropyl)-2-fluoro-6-methylbenzamide], for which the IC50 in assay [1] (setting [5]) amounted to 0.8 nM; in assay [1] (Homo sapiens, read-out: pMLKL IC50, Table 22, compounds of the present invention), 0.8 nM; in assay [2] (setting [4]) it was 2.8 nM; in assay [2] (Table 22, compounds of the present invention, read-out: RPIK1 IC50), 3.5 nM.

In the case of `Cc1ccc(-c2ccn3nc(N)nc3c2)c(F)c1C(=O)NCC(F)(F)Cc1ccc(F)cc1` [Example 208, 3-(2-amino-[1,2,4]triazolo[1,5-a]pyridin-7-yl)-N-(2,2-difluoro-3-(4-fluorophenyl)propyl)-2-fluoro-6-methylbenzamide], the half-inhibitory concentration (IC50) in assay [1] (setting [5]) worked out at 0.2 nM; in assay [2] (setting [4]), 2.6 nM.

For `Nc1nc2cc(-c3ccc(Cl)c(C(=O)NCCC(O)c4ccc(C(F)(F)F)cc4)c3F)ccn2n1` (single isomer, unassigned) [Example 85, 3-(2-amino-[1,2,4]triazolo[1,5-a]pyridin-7-yl)-6-chloro-2-fluoro-N-(3-hydroxy-3-(4-(trifluoromethyl)phenyl)propyl)benzamide], the 50% inhibitory concentration (IC50) in assay [1] (setting [3]) was found to be 0.5 nM; in assay [2] (setting [4]), 2.1 nM.

As to `[2H]C(O)(c1ccc(C(F)F)cc1)C(F)(F)CNC(=O)c1c(Cl)ccc(-c2ccn3nc(N)nc3c2)c1F` (single isomer, unassigned) [Example 311, 3-(2-amino-[1,2,4]triazolo[1,5-a]pyridin-7-yl)-6-chloro-N-(3-(4-(difluoromethyl)phenyl)-2,2-difluoro-3-hydroxypropyl-3-d)-2-fluorobenzamide], the values for the IC50 in assay [1] (setting [5]) and in assay [2] (setting [4]) were 0.8 nM and 5 nM, respectively.

As to `Cc1nc(C)c(-c2ccn3nc(N)nc3c2)cc1C(=O)NCC(O)Cc1ccccc1` (centres unmarked) [Example 174], the IC50 in assay [1] (Homo sapiens, Table 23, representative compounds from WO2018/148626, read-out: pMLKL IC50) was determined as 205 nM; in assay [2] (Table 23, representative compounds from WO2018/148626, read-out: RIPK1 IC50) it was 48 nM.

In the case of `Nc1nc2cc(-c3ccc(Cl)c(C(=O)NCC(F)(F)C(O)c4cccc(Cl)c4F)c3F)ccn2n1` (single isomer, unassigned) [Example 171, 3-(2-amino-[1,2,4]triazolo[1,5-a]pyridin-7-yl)-6-chloro-N-(3-(3-chloro-2-fluorophenyl)-2,2-difluoro-3-hydroxypropyl)-2-fluorobenzamide], the IC50 in assay [1] (setting [3]) worked out at 10 nM; in assay [2] (setting [4]) it was 1.6 nM.

Consider `Cc1ccc(-c2ccn3nc(N)nc3c2)c(F)c1C(=O)NCCC(O)C1CCCCC1` (centres unmarked) [Example 40, 3-(2-amino-[1,2,4]triazolo[1,5-a]pyridin-7-yl)-N-(3-cyclohexyl-3-hydroxypropyl)-2-fluoro-6-methylbenzamide], for which the figures for the IC50 in assay [1] (setting [5]) and in assay [2] (setting [4]) were 1.5 nM and 3.8 nM, respectively.

On to `Cc1ccc(-c2ccn3nc(N)nc3c2)c(F)c1C(=O)NCC(F)(F)C(O)c1c(F)cc(F)cc1F` (single isomer, unassigned) [Example 284, 3-(2-amino-[1,2,4]triazolo[1,5-a]pyridin-7-yl)-N-(2,2-difluoro-3-hydroxy-3-(2,4,6-trifluorophenyl)propyl)-2-fluoro-6-methylbenzamide], for which the half-inhibitory concentration (IC50) in assay [1] (setting [3]) is 1.1 nM; in assay [2] (setting [4]), 3.5 nM.

Consider `Cc1ccc(-c2ccn3nc(N)nc3c2)c(F)c1C(=O)NCC(F)(F)[C@@H](OC(N)=O)c1ccc(F)cc1` [Example 276, (S)-3-(3-(2-amino-[1,2,4]triazolo[1,5-a]pyridin-7-yl)-2-fluoro-6-methylbenzamido)-2,2-difluoro-1-(4-fluorophenyl)propyl carbamate], for which the IC50 in assay [1] (setting [5]) is 8.4 nM; in assay [2] (setting [4]) it was 3.7 nM.

Consider `Cc1cc(F)c(-c2ccn3nc(N)nc3c2)cc1C(=O)NCC(F)(F)C(C)(O)c1ccc(Cl)cc1` (single isomer, unassigned) [Example 225, 5-(2-amino-[1,2,4]triazolo[1,5-a]pyridin-7-yl)-N-(3-(4-chlorophenyl)-2,2-difluoro-3-hydroxybutyl)-4-fluoro-2-methylbenzamide], for which the IC50 in assay [1] (setting [5]) worked out at 3.8 nM; in assay [2] (setting [4]), 19 nM.

`Nc1nc2cc(-c3ccc(Cl)c(C(=O)NCC(F)(F)C(O)c4cc(Cl)ccc4F)c3F)ccn2n1` (centres unmarked) [Example 181, 3-(2-amino-[1,2,4]triazolo[1,5-a]pryidin-7-yl)-6-chloro-N-(3-(5-chloro-2-fluorophenyl)-2,2-difluoro-3-hydroxypropyl)-2-fluorobenzamide]: the IC50 in assay [1] (setting [3]) amounted to 0.3 nM; in assay [2] (setting [4]) it was 1.7 nM.

Regarding `Nc1nc2cc(-c3ccc(C(F)(F)F)c(C(=O)NCC(F)(F)[C@@H](O)c4ccc(F)cc4)c3F)ccn2n1` [Example 315, (S)-3-(2-amino-[1,2,4]triazolo[1,5-a]pyridin-7-yl)-N-(2,2-difluoro-3-(4-fluorophenyl)-3-hydroxypropyl)-2-fluoro-6-(trifluoromethyl)benzamide], the 50% inhibitory concentration (IC50) in assay [1] (setting [5]) turned out to be 0.4 nM; in assay [2] (setting [4]) it was 6.9 nM.
